The values below come from patent US8044069B2, “Compounds as calcium channel blockers” (Abbott Laboratories, priority 2008, dated 2011).

For this assay, the target named is human Cav2.2 (Homo sapiens, UniProt Q00975). As to the kind of experiment: Assessment of calcium channel activity using FLIPR (Ca2+ influx in IMR32 cells). Format: cell-based. Particulars: IMR32 cells endogenously expressing human Cav2.2; 60 minute pre-incubation; 2 μM nifedipine; depolarized with 80 mM KCl, 5 mM CaCl2. The essentials:
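IMR32 cells were dye-loaded and pre-incubated 60 min with compound (10 μM to 0.1 nM) in 1.3 mM CaCl2 plus 2 μM nifedipine to block L-type channels. Cells were then depolarized with 80 mM KCl while Ca2+ was raised to 5 mM, and FLIPR read the influx. IC50 came from a sigmoidal fit of % inhibition versus the no-inhibitor control.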

SMILES strings stand for the structures.

Sequence of human Cav2.2 (Q00975 whole entry): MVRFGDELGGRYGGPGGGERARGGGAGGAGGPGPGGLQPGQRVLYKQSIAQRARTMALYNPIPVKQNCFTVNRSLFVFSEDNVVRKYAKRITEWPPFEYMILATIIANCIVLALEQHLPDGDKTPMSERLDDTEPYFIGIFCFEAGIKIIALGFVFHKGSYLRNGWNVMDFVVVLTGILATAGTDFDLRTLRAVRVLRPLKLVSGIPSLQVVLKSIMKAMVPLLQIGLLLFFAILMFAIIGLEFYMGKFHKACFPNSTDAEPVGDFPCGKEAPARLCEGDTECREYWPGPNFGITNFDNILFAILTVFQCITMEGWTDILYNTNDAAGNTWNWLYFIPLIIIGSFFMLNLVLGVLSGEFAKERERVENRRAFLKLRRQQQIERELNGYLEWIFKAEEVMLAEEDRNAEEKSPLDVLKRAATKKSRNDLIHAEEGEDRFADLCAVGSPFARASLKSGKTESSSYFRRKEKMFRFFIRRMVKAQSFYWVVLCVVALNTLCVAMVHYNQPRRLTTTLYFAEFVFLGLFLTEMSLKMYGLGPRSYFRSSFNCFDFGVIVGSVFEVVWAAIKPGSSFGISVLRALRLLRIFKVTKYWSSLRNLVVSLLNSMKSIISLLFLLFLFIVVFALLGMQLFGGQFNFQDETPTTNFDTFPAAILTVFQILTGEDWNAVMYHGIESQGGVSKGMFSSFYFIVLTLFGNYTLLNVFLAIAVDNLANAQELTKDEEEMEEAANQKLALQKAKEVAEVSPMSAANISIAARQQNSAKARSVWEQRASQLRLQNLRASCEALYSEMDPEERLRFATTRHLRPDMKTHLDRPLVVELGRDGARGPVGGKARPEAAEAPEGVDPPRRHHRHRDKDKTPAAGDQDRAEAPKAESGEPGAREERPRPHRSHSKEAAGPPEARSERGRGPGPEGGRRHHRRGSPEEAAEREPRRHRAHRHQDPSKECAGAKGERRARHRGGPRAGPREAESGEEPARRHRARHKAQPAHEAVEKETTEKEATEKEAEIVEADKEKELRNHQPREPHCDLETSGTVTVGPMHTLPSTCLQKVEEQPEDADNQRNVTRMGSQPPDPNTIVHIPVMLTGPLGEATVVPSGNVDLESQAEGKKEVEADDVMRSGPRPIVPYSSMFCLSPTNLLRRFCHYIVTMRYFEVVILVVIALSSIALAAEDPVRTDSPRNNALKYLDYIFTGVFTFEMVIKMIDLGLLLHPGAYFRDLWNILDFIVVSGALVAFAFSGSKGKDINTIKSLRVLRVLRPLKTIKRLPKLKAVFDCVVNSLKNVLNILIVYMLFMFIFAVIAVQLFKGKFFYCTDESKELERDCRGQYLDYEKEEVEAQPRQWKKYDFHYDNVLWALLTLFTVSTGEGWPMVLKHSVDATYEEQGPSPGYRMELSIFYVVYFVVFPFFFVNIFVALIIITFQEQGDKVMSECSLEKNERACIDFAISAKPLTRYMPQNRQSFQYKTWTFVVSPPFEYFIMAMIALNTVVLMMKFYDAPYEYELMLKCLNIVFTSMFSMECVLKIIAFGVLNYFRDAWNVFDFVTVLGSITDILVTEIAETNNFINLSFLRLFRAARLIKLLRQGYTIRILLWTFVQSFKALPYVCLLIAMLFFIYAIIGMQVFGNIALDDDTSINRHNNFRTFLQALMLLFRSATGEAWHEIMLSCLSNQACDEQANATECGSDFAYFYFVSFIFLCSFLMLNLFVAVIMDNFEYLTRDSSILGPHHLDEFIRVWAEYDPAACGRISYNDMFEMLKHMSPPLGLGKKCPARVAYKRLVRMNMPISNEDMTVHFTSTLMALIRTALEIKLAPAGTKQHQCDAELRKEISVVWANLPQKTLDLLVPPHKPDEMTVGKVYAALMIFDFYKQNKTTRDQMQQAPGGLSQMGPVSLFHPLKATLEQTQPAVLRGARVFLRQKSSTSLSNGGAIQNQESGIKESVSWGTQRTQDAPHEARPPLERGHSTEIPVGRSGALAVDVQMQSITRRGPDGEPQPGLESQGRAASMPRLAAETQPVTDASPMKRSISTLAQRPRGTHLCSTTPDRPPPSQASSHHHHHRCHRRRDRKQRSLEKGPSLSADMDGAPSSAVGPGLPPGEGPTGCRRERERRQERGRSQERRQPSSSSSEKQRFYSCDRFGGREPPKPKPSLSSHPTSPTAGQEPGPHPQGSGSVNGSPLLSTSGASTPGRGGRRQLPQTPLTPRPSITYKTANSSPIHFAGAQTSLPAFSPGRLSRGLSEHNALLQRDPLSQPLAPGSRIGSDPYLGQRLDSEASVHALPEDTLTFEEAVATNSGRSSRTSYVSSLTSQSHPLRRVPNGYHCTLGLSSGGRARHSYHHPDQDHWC
Sequence of human Cav2.2 (P54289 25-951 partner limits assumed): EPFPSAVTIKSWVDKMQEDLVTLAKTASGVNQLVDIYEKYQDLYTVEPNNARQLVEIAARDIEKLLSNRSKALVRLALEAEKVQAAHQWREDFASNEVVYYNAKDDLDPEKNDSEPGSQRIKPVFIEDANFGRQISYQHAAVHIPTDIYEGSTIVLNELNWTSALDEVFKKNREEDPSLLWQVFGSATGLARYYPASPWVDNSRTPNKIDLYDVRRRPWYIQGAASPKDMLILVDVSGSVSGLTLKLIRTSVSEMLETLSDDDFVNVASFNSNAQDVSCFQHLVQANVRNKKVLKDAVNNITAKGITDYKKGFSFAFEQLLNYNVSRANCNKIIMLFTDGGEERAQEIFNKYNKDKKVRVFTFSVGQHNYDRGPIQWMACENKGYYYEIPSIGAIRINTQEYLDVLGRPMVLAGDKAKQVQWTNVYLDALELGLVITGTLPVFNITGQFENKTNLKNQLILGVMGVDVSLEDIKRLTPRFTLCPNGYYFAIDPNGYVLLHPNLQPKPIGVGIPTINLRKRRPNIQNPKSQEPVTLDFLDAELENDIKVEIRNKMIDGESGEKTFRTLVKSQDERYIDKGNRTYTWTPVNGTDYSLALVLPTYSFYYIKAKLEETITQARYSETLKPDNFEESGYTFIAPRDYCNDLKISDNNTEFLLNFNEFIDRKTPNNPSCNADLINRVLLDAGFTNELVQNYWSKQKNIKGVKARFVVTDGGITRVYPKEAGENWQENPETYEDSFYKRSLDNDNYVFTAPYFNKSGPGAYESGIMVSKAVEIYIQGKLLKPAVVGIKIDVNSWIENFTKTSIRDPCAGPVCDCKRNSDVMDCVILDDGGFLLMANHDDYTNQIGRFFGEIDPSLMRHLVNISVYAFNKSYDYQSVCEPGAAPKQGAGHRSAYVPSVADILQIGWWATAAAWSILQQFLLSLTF
Sequence of human Cav2.2 (P54289 952-1103 partner limits assumed): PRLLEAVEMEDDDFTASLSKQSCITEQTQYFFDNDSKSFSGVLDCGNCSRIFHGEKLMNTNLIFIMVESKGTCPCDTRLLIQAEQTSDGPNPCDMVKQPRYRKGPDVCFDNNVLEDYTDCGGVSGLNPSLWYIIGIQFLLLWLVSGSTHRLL
Sequence of human Cav2.2 (P54284 whole entry partner): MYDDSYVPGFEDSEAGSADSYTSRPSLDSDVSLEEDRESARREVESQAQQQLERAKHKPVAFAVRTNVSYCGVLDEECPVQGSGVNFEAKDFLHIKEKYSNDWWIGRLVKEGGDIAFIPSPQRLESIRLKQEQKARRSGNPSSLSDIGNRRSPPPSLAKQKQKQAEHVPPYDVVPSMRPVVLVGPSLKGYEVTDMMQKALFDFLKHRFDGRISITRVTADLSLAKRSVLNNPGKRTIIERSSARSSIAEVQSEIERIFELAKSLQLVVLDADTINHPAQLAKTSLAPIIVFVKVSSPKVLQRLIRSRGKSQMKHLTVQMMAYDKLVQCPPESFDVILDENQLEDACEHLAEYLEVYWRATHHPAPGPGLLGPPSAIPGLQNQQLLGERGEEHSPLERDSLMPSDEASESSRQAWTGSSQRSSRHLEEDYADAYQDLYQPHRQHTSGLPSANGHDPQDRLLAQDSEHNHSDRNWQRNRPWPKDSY

What is called IC50 is the concentration needed to halve the response being measured. Consider `O=C(CN1CCC(c2ccccc2)(c2ccccc2)C1=O)N1CCC(c2ccccc2)(c2ccccc2)CC1` [Example 25, 1-[2-(4,4-diphenylpiperidin-1-yl)-2-oxoethyl]-3,3-diphenylpyrrolidin-2-one], for which the IC50 turned out to be 0.46 µM. For `O=C(CN1CCCC(c2ccccc2)(c2ccccc2)C1=O)N1CCC(c2ccc(F)cc2)(c2ccc(F)cc2)C1` [Example 205, 1-{2-[3,3-bis(4-fluorophenyl)pyrrolidin-1-yl]-2-oxoethyl}-3,3-diphenylpiperidin-2-one] the value was 3.32 µM; for `Cc1nc(-c2ccc(C(F)(F)F)cc2)sc1CN1CCC(c2ccccc2)(c2ccccc2)C1=O` [Example 156, 1-({4-methyl-2-[4-(trifluoromethyl)phenyl]-1,3-thiazol-5-yl}methyl)-3,3-diphenylpyrrolidin-2-one], 6.18 µM. For `O=C(CN1CCCC(c2ccccc2)(c2ccccc2)C1=O)N1CCCC(c2ccccc2)(c2ccccc2)C1` [Example 71, 1-[2-(3,3-diphenylpiperidin-1-yl)-2-oxoethyl]-3,3-diphenylpiperidin-2-one] the value was 3.41 µM.

Take `O=C(CN1CCC(c2ccc(F)cc2)C1=O)N1CCc2ccc(C(F)(F)F)cc2C1` (centres unmarked) [Example 254, 3-(4-fluorophenyl)-1-{2-oxo-2-[7-(trifluoromethyl)-3,4-dihydroisoquinolin-2(1H)-yl]ethyl}pyrrolidin-2-one]: the IC50 came out at 4.32 µM. Consider `COc1ccc(C2(c3ccc(OC)cc3)CCN(CCN(C)CC(O)COc3cccc4ncccc34)C2=O)cc1` (centres unmarked) [Example 106, 1-{2-[[2-hydroxy-3-(quinolin-5-yloxy)propyl](methyl)amino]ethyl}-3,3-bis(4-methoxyphenyl)pyrrolidin-2-one], for which the IC50 was 0.73 µM.

`O=C(CN1CCC(c2ccccc2)(c2ccccc2)C1=O)Nc1ccc(C(F)(F)F)nc1` [Example 248, 2-(2-oxo-3,3-diphenylpyrrolidin-1-yl)-N-[6-(trifluoromethyl)pyridin-3-yl]acetamide]: the IC50 worked out at 8.84 µM. For `O=C1[C@H](c2ccc(F)cc2)CCN1Cc1nc(-c2ccc(C(F)(F)F)cc2)no1` (single isomer, unassigned) [Example 236] the value was 2.75 µM; for `O=C(CN1CCNC(c2ccccc2)C1=O)N1CCN(C(c2ccc(F)cc2)c2ccc(F)cc2)CC1` (centres unmarked) [Example 103, 1-(2-{4-[bis(4-fluorophenyl)methyl]piperazin-1-yl}-2-oxoethyl)-3-phenylpiperazin-2-one], 10.6 µM. For `O=C1N(Cc2nc(-c3cc(F)cc(F)c3)no2)CCC1(c1ccccc1)c1ccccc1` [Example 215, 1-{[3-(3,5-difluorophenyl)-1,2,4-oxadiazol-5-yl]methyl}-3,3-diphenylpyrrolidin-2-one], the IC50 was found to be 6.89 µM. Then `O=C1N(S(=O)(=O)c2cccc(C(F)(F)F)c2)CCC1(c1ccc(F)cc1)c1ccc(F)cc1` [Example 145, 3,3-bis(4-fluorophenyl)-1-{[3-(trifluoromethyl)phenyl]sulfonyl}pyrrolidin-2-one], with 9.64 µM; and `O=C(CN1CCCC(c2ccccc2)(c2ccccc2)C1=O)N1CCN(Cc2ccc(F)c(C(F)(F)F)c2)CC1` [Example 184, 1-(2-{4-[4-fluoro-3-(trifluoromethyl)benzyl]piperazin-1-yl}-2-oxoethyl)-3,3-diphenylpiperidin-2-one], with 1.27 µM; and `O=C(CN1CCCC(c2ccccc2)(c2ccccc2)C1=O)N1CCC(n2nnc3cc(C(F)(F)F)ccc32)CC1` [Example 164, 1-(2-oxo-2-{4-[5-(trifluoromethyl)-1H-1,2,3-benzotriazol-1-yl]piperidin-1-yl}ethyl)-3,3-diphenylpiperidin-2-one], with 2.02 µM. On to `COc1ccc(CCN(C)CCN2CCCC(c3cccc(OC)c3)(C(C)C)C2=O)cc1` (centres unmarked) [Example 130, 3-isopropyl-3-(3-methoxyphenyl)-1-{2-[[2-(4-methoxyphenyl)ethyl](methyl)amino]ethyl}piperidin-2-one], for which the IC50 was found to be 1.13 µM. For `O=C1N(Cc2nc(-c3cnccc3C(F)(F)F)no2)CCC1(c1ccccc1)c1ccccc1` [Example 220, 3,3-diphenyl-1-({3-[4-(trifluoromethyl)pyridin-3-yl]-1,2,4-oxadiazol-5-yl}methyl)pyrrolidin-2-one] the value was 1.99 µM; for `O=C1N(S(=O)(=O)c2ccc(C(F)(F)F)cc2Cl)CCC1(c1ccccc1)c1ccccc1` [Example 151, 1-{[2-chloro-4-(trifluoromethyl)phenyl]sulfonyl}-3,3-diphenylpyrrolidin-2-one], 18.3 µM.

Consider `O=C1N(Cc2nc(COc3ccc(Cl)cc3)no2)CCCC1(c1ccccc1)c1ccccc1` [Example 263, 1-({3-[(4-chlorophenoxy)methyl]-1,2,4-oxadiazol-5-yl}methyl)-3,3-diphenylpiperidin-2-one], for which the IC50 turned out to be 3.49 µM. In the case of `O=C(CN1CCC(c2ccc(C(F)(F)F)cc2)C1=O)N1Cc2ccc(F)cc2C1` (centres unmarked) [Example 266, 1-[2-(5-fluoro-1,3-dihydro-2H-isoindol-2-yl)-2-oxoethyl]-3-[4-(trifluoromethyl)phenyl]pyrrolidin-2-one], the IC50 stood at 10.1 µM. On to `COc1ccc(C2(c3ccc(OC)cc3)CCCN(CCCN(C)CCc3cc(OC)cc(OC)c3)C2=O)cc1` [Example 119, 1-{3-[[2-(3,5-dimethoxyphenyl)ethyl](methyl)amino]propyl}-3,3-bis(4-methoxyphenyl)piperidin-2-one], for which the IC50 came out at 2.68 µM. As to `O=C(CN1CCCC(c2ccccc2)(c2ccccc2)C1=O)N1CCOC(c2ccccc2)C1` (centres unmarked) [Example 70, 1-[2-oxo-2-(2-phenylmorpholin-4-yl)ethyl]-3,3-diphenylpiperidin-2-one], the IC50 is 7.22 µM. For `COc1ccc(C2(c3ccc(OC)cc3)CCCN(CCN(C)CCc3ccc(OC)cc3OC)C2=O)cc1` [Example 126, 1-{2-[[2-(2,4-dimethoxyphenyl)ethyl](methyl)amino]ethyl}-3,3-bis(4-methoxyphenyl)piperidin-2-one] the value was 1.49 µM. Then `O=C(CN1CCCC(c2ccccc2)(c2ccccc2)C1=O)N1CCC(c2ccc(C(F)(F)F)cc2)CC1` [Example 245, 1-(2-oxo-2-{4-[4-(trifluoromethyl)phenyl]piperidin-1-yl}ethyl)-3,3-diphenylpiperidin-2-one], with 4.48 µM. Take `O=C1C(c2ccccc2)CCCN1Cc1nc(-c2ccc(C(F)(F)F)cc2)no1` (centres unmarked) [Example 181, 3-phenyl-1-({3-[4-(trifluoromethyl)phenyl]-1,2,4-oxadiazol-5-yl}methyl)piperidin-2-one]: the IC50 was 3.27 µM.

As to `O=C(CN1CCC(c2ccccc2)(c2ccccc2)C1=O)NCC1CCN(Cc2ccccc2)C1` (centres unmarked) [Example 39, N-[(1-benzylpyrrolidin-3-yl)methyl]-2-(2-oxo-3,3-diphenylpyrrolidin-1-yl)acetamide], the IC50 was 2.6 µM.

For `O=C(CN1CCC(c2ccccc2)(c2ccccc2)C1=O)NC1Cc2ccccc2C1` [Example 22, N-2,3-dihydro-1H-inden-2-yl-2-(2-oxo-3,3-diphenylpyrrolidin-1-yl)acetamide], the IC50 was determined as 3.96 µM. Then `O=C1[C@@H](c2ccc(F)cc2)CCN1Cc1nc(-c2ccc(C(F)(F)F)cc2)no1` (single isomer, unassigned) [Example 237], with 2.81 µM. Then `O=C(CN1CCC(c2ccccc2)(c2ccccc2)C1=O)Nc1ncc(C(F)(F)F)cc1Cl` [Example 249, N-[3-chloro-5-(trifluoromethyl)pyridin-2-yl]-2-(2-oxo-3,3-diphenylpyrrolidin-1-yl)acetamide], with 6.48 µM; and `O=C1N(CCN2CCN(c3cccc(C(F)(F)F)c3)CC2)CCCC1(c1ccccc1)c1ccccc1` [Example 141, 3,3-diphenyl-1-(2-{4-[3-(trifluoromethyl)phenyl]piperazin-1-yl}ethyl)piperidin-2-one], with 1.56 µM.

For the molecule `C[C@@H]1CN(C(=O)c2cccc(S(=O)(=O)N3CCC(c4ccccc4)(c4ccccc4)C3=O)c2)C[C@H](C)O1` [Example 147, 1-[(3-{[cis-2,6-dimethylmorpholin-4-yl]carbonyl}phenyl)sulfonyl]-3,3-diphenylpyrrolidin-2-one], the IC50 was determined as 1.84 µM. For `O=C1N(Cc2nc(CCc3ccccc3Cl)no2)CCCC1(c1ccccc1)c1ccccc1` [Example 262, 1-({3-[2-(2-chlorophenyl)ethyl]-1,2,4-oxadiazol-5-yl}methyl)-3,3-diphenylpiperidin-2-one] the value was 3.39 µM; for `O=C(CN1CCC(c2ccc(F)cc2)(c2ccc(F)cc2)C1=O)N1C[C@@H]2CCCN(Cc3cccc(C(F)(F)F)c3)[C@@H]2C1` [Example 210, 3,3-bis(4-fluorophenyl)-1-(2-oxo-2-{(4aS,7aS)-1-[3-(trifluoromethyl)benzyl]octahydro-6H-pyrrolo[3,4-b]pyridin-6-yl}ethyl)pyrrolidin-2-one], 0.96 µM; for `O=C1N(Cc2noc(-c3ccc(C(F)(F)F)cc3)n2)CCC1(c1ccccc1)c1ccccc1` [Example 196, 3,3-diphenyl-1-({5-[4-(trifluoromethyl)phenyl]-1,2,4-oxadiazol-3-yl}methyl)pyrrolidin-2-one], 4.01 µM. On to `COc1ccc2[nH]cc(C3=CCN(C(=O)CN4CCC(c5ccccc5)(c5ccccc5)C4=O)CC3)c2c1` [Example 35, 1-{2-[4-(5-methoxy-1H-indol-3-yl)-3,6-dihydropyridin-1(2H)-yl]-2-oxoethyl}-3,3-diphenylpyrrolidin-2-one], for which the IC50 worked out at 8.07 µM. Then `O=C(CN1CCC(c2ccc(F)cc2)C1=O)N1Cc2ccc(C(F)(F)F)cc2C1` (single isomer, unassigned; (-)) [Example 265, (−)-3-(4-fluorophenyl)-1-{2-oxo-2-[5-(trifluoromethyl)-1,3-dihydro-2H-isoindol-2-yl]ethyl}pyrrolidin-2-one], with 11.1 µM. For `O=C(CN1CCC(c2ccccc2)(c2ccccc2)C1=O)NCC(c1ccccc1)c1ccccc1` [Example 15, N-(2,2-diphenylethyl)-2-(2-oxo-3,3-diphenylpyrrolidin-1-yl)acetamide] the value was 0.87 µM.
